Reference: patent US20030162694A1, “Novel treatment for pathological aggression” (priority 2002, published 2003)

Assays:
individually housed mice = conditions: cited from earlier work
mice = mice (McAllister, 1990); cited from earlier work
SJL mice = assay: social interaction test with a non-aggressive conspecific in long-term individually housed hyperaggressive mice (isolation-induced aggression); format: in vivo; conditions: for mice that attacked: vehicle 8 of 8
Description: It is well-established that housing in isolation for significant periods of time will enhance the natural tendency of cage resident mice to attack an “intruder” mouse placed in their home cage. The isolation model in mice is the most appropriate model for screening drugs for anti-aggression potential. We tested whether acute exposure to the NAALADase inhibitor [2-[(pentafluorophenylmethyl) hydroxyphosphinyl]methyl-pentanedioic acid, administered prior to a social interaction test, would inhibit aggressive behavior in SJL mice that had been individually housed for eight months. [2-[(pentafluorophenylmethyl) hydroxyphosphinyl]methyl-pentanedioic acid (30 mg/kg, i.p.) was administered 30 minutes prior to a social interaction test to pharmacologically naive male mice which had been selected and behaviorally shaped to be hyperaggressive, and had consistently shown markedly aggressive behaviors in prior interactions with intruder mice. Administration of [2-[(pentafluorophenylmethyl) hydroxyphosphinyl]methyl-pentanedioic acid (30 mg/kg, i.p.) inhibited aggression, indicated by greater latencies to display tail-rattling, attack and bite, and fewer tail-rattling responses to a non-aggressive conspecific, relative to vehicle. In addition, fewer mice that received [2-[(pentafluorophenylmethyl) hydroxyphosphinyl]methyl-pentanedioic acid (30 mg/kg) initiated attack, relative to those that received vehicle.
We hypothesized that similar to the effects of NMDA antagonists, NAALADase inhibition and therefore increased NAAG, would inhibit aggressiveness under conditions of high basal levels of aggressiveness. We administered the NAALADase inhibitor [2-[(pentafluorophenylmethyl) hydroxyphosphinyl]methyl-pentanedioic acid prior to a social interaction test in a novel cage and measured behavioral responses to a non-aggressive conspecific; a novel cage was used to lower the levels of aggressiveness. The paradigm used was adapted from File (reviewed in Crawley, 2000).
Principles of laboratory animal care (NIH publication No. 85-23, revised 1985) were followed. […] In addition, these mice had been used to socially defeat mice that were used as subjects in numerous other studies. These highly aggressive SJL had no previous drug exposure. At the end of 8 months of training, subjects weighed 30-37 grams and had attack latencies of less than 30 sec when exposed to an obx. During the social interaction test, two C57BL/6 male mice (30-33 g; Jackson Laboratories), which were screened for non-aggressiveness and unfamiliar to the subjects, were used as stimulus mice.
[2-[(pentafluorophenylmethyl) hydroxyphosphinyl]methyl-pentanedioic acid, MW 390.2 (3 mg/kg or 30 mg/kg in 50 mM Hepes in 0.9% saline; pH 7.2; Guilford Pharmaceuticals) or vehicle (50 mM Hepes in 0.9% saline; pH 7.2) was administered intraperitoneally (i.p.; 10 ml/kg) 30 min. prior to a 4 min. social interaction test. Subject mice were placed in a novel cage (48×27×20 cm) along with a non-aggressive male conspecific and tested under low illumination (red lights) during the dark phase of their cycle. Methods for various social interaction tests reviewed in Crawley et al. (2000). Tests were videotaped and behaviors were scored using a computer program (Hindsight, Scott Weiss, UK), by two observers blind to the treatment. Behavioral measures included 1) measures of aggressiveness or threat: attack, bite, chase or follow, grooming conspecific, tail rattling 2) measures of exploratory and locomotor activity: walking, rearing, digging, 3) measures of defensiveness: defensive posture (crouch, upright) and flight. Details on behavioral measurements may be found in Grant and McIntosh, 1963; Lumley et al., 2000; Crawley, 2000.
One-way analysis of variance was performed for each behavioral measure with drug dose as the independent factor. Data were further probed using Dunnet=s test.

C57BL/6 mice = conditions: chronic exposure (i.c.v.), low baseline aggressiveness (Lumley, Soc. Neurosci); cited from earlier work

Structure (SMILES): c1ccc(C2(N3CCCCC3)CCCCC2)cc1 [PCP, phencyclidine]
- aggressiveness (individually housed mice; individually housed mice (Wilmot et al., 1987)): increased aggressiveness
- number of mice that displayed attack (individually housed mice; individually housed mice): reduced the number of mice that displayed attack

Structure (SMILES): C[C@]12N[C@H](Cc3ccccc31)c1ccccc12 [dizocilpine]
- aggression (mice): increased aggression

Structure (SMILES): O=C(O)CCC(CP(=O)(O)Cc1c(F)c(F)c(F)c(F)c1F)C(=O)O (stereo not shown) [[2-[(pentafluorophenylmethyl) hydroxyphosphinyl]methyl-pentanedioic acid]
- mice that attacked (SJL mice; 3 mg/kg): 7 of 10
- latency to attack (SJL mice; 30 mg/kg i.p., 30 min before 4 min test, relative to vehicle, F (2, 26)=2.36): increased latencies
- latency to bite (SJL mice; 30 mg/kg i.p., 30 min before 4 min test, relative to vehicle, F (2, 26)=2.82): increased latencies
- latency to display tail-rattling (SJL mice; 30 mg/kg i.p., 30 min before 4 min test, relative to vehicle, F (2, 26)=7.41): increased latencies
- number of tail-rattling responses (SJL mice; 30 mg/kg, relative to vehicle, F (2, 26)=3.66): tended to display fewer tail-rattling responses
- mice that attacked (SJL mice; 30 mg/kg): 4 of 9
- percent of mice that attacked the conspecific (SJL mice; 30 mg/kg, vehicle 100%): 44%
- defensive responses (SJL mice; 3 or 30 mg/kg i.p., few mice displayed any): no effect
- number of attacks (SJL mice; in mice displaying the behavior, 3 or 30 mg/kg i.p., F (2,18)=0.11): no effect
- number of bites (SJL mice; in mice displaying the behavior, 3 or 30 mg/kg i.p., F (2, 26)=0.31): no effect
- number of attacks in the 4 of 9 treated mice that attacked (SJL mice; relative to vehicle-treated mice, not significant): tended to have more attacks
- tail rattling responses as stated in the discussion (SJL mice; relative to vehicle, dose not stated): more tail rattling responses than vehicle

Structure (SMILES): O=C(O)CCC(CP(=O)(O)O)C(=O)O (stereo not shown) [2-PMPA, 2-(phosphonomethyl)-pentanedioic acid]
- aggressiveness (C57BL/6 mice): increase aggressiveness
